15 molecules from patent US7576212B2, “Thieno[2,3-B] pyridines as potassium channel inhibitors” (Xention Limited, priority 2004, dated 2009) can be followed below.

In one assay the target is T1, human Kv1.3 (Homo sapiens, UniProt P22001).
T1 construct: expressed in transfected cells
Nature of the assay: Kv1.3 whole cell patch electrophysiology (AutoPatch / conventional). The assay is classed as cell-based. As to conditions: 1 μM compound; cells stably transfected with human Kv1.3; whole cell mode; room temperature. How it is done:
Kv1.3 Autopatch Electrophysiology Method
Cells stably transfected with cDNA for human Kv1.3 were grown in Dulbecco's Modified Eagle media (DMEM) alpha supplemented with 10% Fetal Calf Serum (FCS), 20 μl/ml penicillin (5000 U/ml) streptomycin (5000 μg/ml), 10 μl/ml [100×] glutamine, and blasticidin (7.5 μg/ml). Compounds were tested on these cells using the AutoPatch technology in whole cell mode.
The external bathing solution contained (in mM): 150 NaCl, 10 KCl, 1 MgCl2, 3 CaCl2, 10 HEPES, pH 7.4 with NaOH. Patch pipettes were filled with an electrode solution of composition (in mM): 100 K-Gluconate, 20 KCl, 1 MgCl2, 1 CaCl2, 10 HEPES, 11 EGTA, 5 ATP-Na2, 2 Glutathione pH 7.2 with KOH.
(§1) Compounds were dissolved in DMSO (100%) and made up in the external bather at a concentration of 1 μM. All experiments were conducted at room temperature (22-24° C.).
(§2) A cell suspension (10 ml), with a density of 100,000 cells/ml, was aliquoted into a 15 ml centrifuge tube and transferred to an incubator (37° C., 5% CO2) for approximately one hour before use. Following 60 min incubation, a tube was taken and centrifuged at 1000 rpm for 4 mins at room temperature. 9.5 ml supernatant was thence discarded, leaving a cell pellet at the bottom of the tube. The pellet was then resuspended using 100 μl of cold (4° C.), filtered (0.22 μm), 0.2% BSA/bather solution (0.02 g BSA/10 ml bather). The bottom of the tube was manually agitated gently until the solution became cloudy with cells. The 100 μl cell resuspension solution was then stored on the bench at 4° C. (using a Peltier-based temperature control device) until used.
(§3) A length of capillary glass (1B150F-4, WPI) was dipped into the cell suspension solution, such that ˜3 cm column of fluid was taken up by capillary action. A Ag/AgCl wire was dropped into the non-dipped end of the capillary also. The outside of the solution-filled end of the capillary was then dried and the capillary was loaded into the AutoPatch™. Borosilicate glass patch pipettes (from 1.5 mm OD, thin-walled filamented, GC150-TF capillary glass, Harvard) were pulled using a DMZ pipette puller (Zeitz Instruments), and were back-filled using the internal pipette solution, being careful that no bubbles remain at the tip or in the body of the pipette. Patch pipettes typically had resistances of 2.3-3.5 MΩ. Once filled, the pipette tip and a proportion of the shaft (˜15mm) were dipped into Sigmacote (Sigma). The recording pipette was then loaded into the AutoPatch™. Automated patch-clamping was initiated by the operator, but thereafter AutoPatch.exe continued the experiment providing that pre-set conditions and criteria were satisfied.
(§4) Whole cell patch-clamp recordings were made using the AutoPatch™ rig, which incorporated an EPC9 or EPC10 amplifier (HEKA, Germany) under control of Pulse software (v8.54 or v8.76, HEKA, Germany), a motion controller with 2 translators (Newport, UK), valve controller (VF1) and a c-level suction device all at room temperature (22-24° C.). This equipment was completely under the control of AutoPatch.exe and operator intervention was only made when there was a requirement to refill the drug reservoirs or to prevent the loss of a cell due to a technical error. Cells with an Rseries greater than 18 MΩ were discounted from the experiment.
Qualification stages prior to perfusion and drug application ensured that the observed current met the criteria for the experiment. Only those cells with an IK>400 pA were used for experiments. Cells were continuously perfused with external solution at a flow rate of 1.8-2 ml/minute. […] Online analysis of the hKv1.3 current during the application of compounds was performed by the AutoPatch™ software. Voltage-step protocols and analysis of data was performed as described for conventional electrophysiology.
Electrophysiology voltage-step protocols and analysis of data was performed as follows. Data was sampled at 5 kHz, and filtered with a −3 dB bandwidth of 2.5 kHz. […]

Another assay has as its target T2, human Kv1.5 (Homo sapiens, UniProt P22460).
T2 construct: expressed in transfected cells
Nature of the assay: Kv1.5 whole cell patch electrophysiology (AutoPatch / conventional). Type of assay: cell-based. As to conditions: 1 μM compound; cells stably transfected with human Kv1.5; whole cell mode; room temperature. How it is done:
Kv1.5 Autopatch Electrophysiology Method
Cells stably transfected with cDNA for human Kv1.5 (in pEF6::VA-His-TOPO) were grown in Dulbecco's Modified Eagle media (DMEM) alpha supplemented with 10% Fetal Calf Serum (FCS), 20 μl/ml penicillin (5000 U/ml) streptomycin (5000 μg/ml), 10 μl/ml [100×] glutamine, and blasticidin (7.5 μg/ml). Compounds were tested on these cells using the AutoPatch technology in whole cell mode.
The external bathing solution contained (in mM): 150 NaCl, 10 KCl, 1 MgCl2, 3 CaCl2, 10 HEPES, pH 7.4 with NaOH. Patch pipettes were filled with an electrode solution of composition (in mM): 160 KCl, 0.5 MgCl2, 10 HEPES, 1 EGTA, pH 7.4 with KOH.
as §1, §2
as §3, with “(˜15 mm)” for “(˜15mm)”
as §4
Qualification stages prior to perfusion and drug application ensured that the observed current met the criteria for the experiment. Only those cells with an IK>500 pA were used for experiments. Cells were continuously perfused with external solution at a flow rate of 1.8-2 ml/minute. […] Online analysis of the hKv1.5 current during the application of compounds was performed by the AutoPatch™ software. Voltage-step protocols and analysis of data was performed as described for conventional electrophysiology.
Electrophysiology voltage-step protocols and analysis of data was performed as follows. Data was sampled at 5kHz, and filtered with a −3 dB bandwidth of 2.5 kHz.
Cells were held at a voltage of −80 mV. […]

Molecules are shown by their SMILES.

T1 sequence (P22001 whole entry): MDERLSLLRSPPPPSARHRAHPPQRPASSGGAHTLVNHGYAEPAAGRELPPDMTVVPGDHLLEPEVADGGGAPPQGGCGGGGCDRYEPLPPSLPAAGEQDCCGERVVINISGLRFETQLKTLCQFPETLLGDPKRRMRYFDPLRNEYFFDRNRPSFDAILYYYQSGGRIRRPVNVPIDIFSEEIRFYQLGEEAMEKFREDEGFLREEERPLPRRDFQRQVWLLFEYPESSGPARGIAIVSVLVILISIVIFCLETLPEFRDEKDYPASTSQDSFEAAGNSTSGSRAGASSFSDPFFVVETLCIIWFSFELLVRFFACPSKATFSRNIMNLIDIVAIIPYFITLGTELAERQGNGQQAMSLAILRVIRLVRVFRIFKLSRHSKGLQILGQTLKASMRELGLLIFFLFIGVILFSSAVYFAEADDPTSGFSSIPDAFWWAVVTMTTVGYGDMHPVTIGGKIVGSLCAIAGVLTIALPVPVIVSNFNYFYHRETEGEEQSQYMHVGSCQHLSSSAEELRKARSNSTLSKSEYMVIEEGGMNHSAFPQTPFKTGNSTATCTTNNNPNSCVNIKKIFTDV
T2 sequence (P22460 whole entry): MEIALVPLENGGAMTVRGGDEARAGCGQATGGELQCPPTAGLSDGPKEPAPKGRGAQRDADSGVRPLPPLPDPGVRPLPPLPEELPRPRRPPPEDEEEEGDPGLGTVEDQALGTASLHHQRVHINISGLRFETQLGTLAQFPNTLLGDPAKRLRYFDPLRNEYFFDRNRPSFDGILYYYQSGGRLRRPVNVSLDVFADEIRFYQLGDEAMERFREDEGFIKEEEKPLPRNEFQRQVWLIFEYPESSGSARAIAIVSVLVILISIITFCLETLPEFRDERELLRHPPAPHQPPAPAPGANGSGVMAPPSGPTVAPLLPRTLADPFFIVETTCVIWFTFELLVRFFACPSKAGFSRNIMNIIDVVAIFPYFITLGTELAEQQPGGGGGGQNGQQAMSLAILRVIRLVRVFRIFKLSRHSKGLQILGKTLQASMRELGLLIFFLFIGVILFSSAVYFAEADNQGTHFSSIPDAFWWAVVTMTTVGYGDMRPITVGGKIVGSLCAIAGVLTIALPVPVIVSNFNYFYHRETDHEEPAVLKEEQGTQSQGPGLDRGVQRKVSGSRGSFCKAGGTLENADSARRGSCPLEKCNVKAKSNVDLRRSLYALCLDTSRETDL

For `Clc1cc(NCc2ccccn2)c2c(-c3ccccc3)csc2n1` [Example 19, (6-Chloro-3-phenyl-thieno[2,3-b]pyridin-4-yl)-pyridin-2-ylmethyl-amine], the results for the inhibition at 1 µM on human Kv1.3 and against human Kv1.5 were 72% and 88%, respectively.

On to `Clc1cc(NCc2ccccn2)nc2scc(-c3ccccc3)c12` [Example 20, (4-Chloro-3-phenyl-thieno[2,3-b]pyridin-6-yl)-pyridin-2-ylmethyl-amine], for which the inhibition at 1 µM against human Kv1.3 came out at 99%; against human Kv1.5, 93%.

On to `Fc1ccc(-c2csc3nc(Cl)cc(NCc4ccccn4)c23)cc1` [Example 21, [6-Chloro-3-(4-fluoro-phenyl)-thieno[2,3-b]pyridin-4-yl]-pyridin-2-ylmethyl-amine], for which the inhibition at 1 µM turned out to be 71% on human Kv1.3 and 59% on human Kv1.5.

For the molecule `Cc1cccc(CNc2cc(Cl)nc3scc(-c4ccc(F)cc4)c23)n1` [Example 22, [6-Chloro-3-(4-fluoro-phenyl)-thieno[2,3-b]pyridin-4-yl]-(6-methyl-pyridin-2-ylmethyl)-amine], the inhibition at 1 µM on human Kv1.3 came out at 78%; against human Kv1.5 it was 95%.

Regarding `OCCNc1cc(NCc2ccccn2)c2c(-c3ccccc3)csc2n1` [Example 24, 2-{3-Phenyl-4-[(pyridin-2-ylmethyl)-amino]-thieno[2,3-b]pyridin-6-ylamino}-ethanol], the inhibition at 1 µM worked out at 93% against human Kv1.3 and 79% against human Kv1.5.

With `OCCN(CCO)c1cc(NCc2ccccn2)c2c(-c3ccccc3)csc2n1` [Example 25, 2-((2-Hydroxy-ethyl)-{3-phenyl-4-[(pyridin-2-ylmethyl)-amino]-thieno[2,3-b]pyridin-6-yl}-amino)-ethanol], the inhibition at 1 µM is 82% on human Kv1.3 and 81% on human Kv1.5.

For the molecule `OCCN(CCO)c1cc(NCc2ccccn2)c2c(-c3ccc(F)cc3)csc2n1` [Example 26, 2-[{3-(4-Fluoro-phenyl)-4-[(pyridin-2-ylmethyl)-amino]-thieno[2,3-b]pyridin-6-yl}-(2-hydroxy-ethyl)-amino]-ethanol], the inhibition at 1 µM at human Kv1.3 was 45%; against human Kv1.5 it was 91%.

For `OCCNc1cc(NCc2ccccn2)c2c(-c3ccc(F)cc3)csc2n1` [Example 27, 2-{3-(4-Fluoro-phenyl)-4-[(pyridin-2-ylmethyl)-amino]-thieno[2,3-b]pyridin-6-ylamino}-ethanol], the inhibition at 1 µM on human Kv1.3 was determined as 72%; at human Kv1.5, 55%.

For `Cc1cccc(CNc2cc(N(CCO)CCO)nc3scc(-c4ccc(F)cc4)c23)n1` [Example 28, 2-[{3-(4-Fluoro-phenyl)-4-[(6-methyl-pyridin-2-ylmethyl)-amino]-thieno[2,3-b]pyridin-6-yl}-(2-hydroxy-ethyl)-amino]-ethanol], the inhibition at 1 µM against human Kv1.3 was determined as 20%; on human Kv1.5, 21%.

Turning to `Cc1cccc(CNc2cc(NCCO)nc3scc(-c4ccc(F)cc4)c23)n1` [Example 29, 2-{3-(4-Fluoro-phenyl)-4-[(6-methyl-pyridin-2-ylmethyl)-amino]-thieno[2,3-b]pyridin-6-ylamino}-ethanol], the inhibition at 1 µM on human Kv1.3 was 62%; on human Kv1.5 it was 31%.

`c1ccc(-c2csc3nccc(NCc4ccccn4)c23)cc1` [Example 35, (3-Phenyl-thieno[2,3-b]pyridin-4-yl)-pyridin-2-ylmethyl-amine]: the inhibition at 1 µM against human Kv1.3 turned out to be 45%; on human Kv1.5, 62%.

For the molecule `Fc1ccc(-c2csc3nccc(NCc4ccccn4)c23)cc1` [Example 36, [3-(4-Fluoro-phenyl)-thieno[2,3-b]pyridin-4-yl]-pyridin-2-ylmethyl-amine], the inhibition at 1 µM at human Kv1.3 was found to be 32%; against human Kv1.5 it was 20%.

As for `Cc1cccc(CNc2ccnc3scc(-c4ccc(F)cc4)c23)n1` [Example 37, [3-(4-Fluoro-phenyl)-thieno[2,3-b]pyridin-4-yl]-(6-methyl-pyridin-2-ylmethyl)-amine], the results for the inhibition at 1 µM against human Kv1.3 and on human Kv1.5 were 30% and 36%, respectively.

`OCCc1cc(NCc2ccccn2)c2c(-c3ccccc3)csc2n1` [Example 43, 2-{3-Phenyl-4-[(pyridin-2-ylmethyl)-amino]-thieno[2,3-b]pyridin-6-yl}-ethanol]: the inhibition at 1 µM at human Kv1.3 amounted to 20%; against human Kv1.5, 94%.

With `OCC(CO)c1cc(NCc2ccccn2)c2c(-c3ccccc3)csc2n1` [Example 44, 2-{3-Phenyl-4-[(pyridin-2-ylmethyl)-amino]-thieno[2,3-b]pyridin-6-yl}-propane-1,3-diol], the inhibition at 1 µM on human Kv1.3 came to 8%; at human Kv1.5, 82%.
